Assay results reported in ChEMBL document CHEMBL1201862, “PubChem BioAssay data set” (2004).
The source made the active and inactive calls.

Assays:
[1] = molecular target: Genome polyprotein (dengue virus type 2, UniProt P29990); experiment: Dengue-2 NS5 methyltransferase inhibitors, primary screen, biochemical, confirmation dose response (AID 588689); assay type: functional
[2] = molecular target: T1, Calpain-2 catalytic subunit (Sus scrofa, UniProt P43367); experiment: pig calpain II inhibitor potency, dose response, biochemical, fluorogenic peptide substrate (AID 1420); assay type: functional
T1 sequence (P43367 whole entry): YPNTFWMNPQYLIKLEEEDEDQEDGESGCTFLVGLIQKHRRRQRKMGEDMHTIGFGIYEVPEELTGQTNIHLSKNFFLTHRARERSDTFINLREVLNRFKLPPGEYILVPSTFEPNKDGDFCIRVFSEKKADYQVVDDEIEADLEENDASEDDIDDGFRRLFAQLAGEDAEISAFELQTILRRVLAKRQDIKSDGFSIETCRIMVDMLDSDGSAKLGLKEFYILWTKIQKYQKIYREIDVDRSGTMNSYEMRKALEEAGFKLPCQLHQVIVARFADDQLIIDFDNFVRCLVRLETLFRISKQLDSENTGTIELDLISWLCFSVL

[3] = test system: INS1; experiment: beta cell apoptosis inhibitors, cytokine rescue, dose response, luminescence, retest (AID 449756); assay type: functional, cell-based; details: Rattus norvegicus;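 note: cell death triggered by IL-1 beta plus TNF-alpha plus IFN-gamma mixture; protective hits raise ATP signal compared with cytokine alone wells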
[4] = molecular target: T2, X-box-binding protein 1 (Homo sapiens, UniProt P17861); assay type: functional, Cricetulus griseus;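 note: confirmatory dose-response counter-screen serving a CHOP assay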
T2 sequence (P17861 whole entry): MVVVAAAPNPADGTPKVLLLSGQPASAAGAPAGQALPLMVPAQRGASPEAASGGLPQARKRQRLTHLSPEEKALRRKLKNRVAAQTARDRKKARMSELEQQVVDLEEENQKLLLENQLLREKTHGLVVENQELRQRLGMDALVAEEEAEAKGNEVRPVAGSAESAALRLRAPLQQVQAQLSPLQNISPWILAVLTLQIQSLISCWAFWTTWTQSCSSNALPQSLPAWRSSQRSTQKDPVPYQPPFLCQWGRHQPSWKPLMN

[5] = molecular target: Heat shock protein HSP 90-alpha (Homo sapiens, UniProt P07900); assay type: functional, organism-based
[6] = test system: Streptococcus sp. 'group A'; experiment: growth inhibition of control SK(-) GAS strain, dose response, counter-screen for streptokinase expression inhibitor project, luminescence, kanamycin, BacTiterGlo, confirmation (AID 1900); assay type: functional, organism-based
[7] = molecular target: T3, Streptokinase A (Streptococcus pyogenes serotype M1, UniProt P10520); experiment: S. pyogenes streptokinase expression inhibitors, potency, dose response, plasminogen activation absorbance, OD405 (AID 1914); assay type: functional, Streptococcus pyogenes M1 GAS;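 note: secreted streptokinase activity via plasminogen activation per viability signal from cell pellet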
T3 sequence (P10520 whole entry): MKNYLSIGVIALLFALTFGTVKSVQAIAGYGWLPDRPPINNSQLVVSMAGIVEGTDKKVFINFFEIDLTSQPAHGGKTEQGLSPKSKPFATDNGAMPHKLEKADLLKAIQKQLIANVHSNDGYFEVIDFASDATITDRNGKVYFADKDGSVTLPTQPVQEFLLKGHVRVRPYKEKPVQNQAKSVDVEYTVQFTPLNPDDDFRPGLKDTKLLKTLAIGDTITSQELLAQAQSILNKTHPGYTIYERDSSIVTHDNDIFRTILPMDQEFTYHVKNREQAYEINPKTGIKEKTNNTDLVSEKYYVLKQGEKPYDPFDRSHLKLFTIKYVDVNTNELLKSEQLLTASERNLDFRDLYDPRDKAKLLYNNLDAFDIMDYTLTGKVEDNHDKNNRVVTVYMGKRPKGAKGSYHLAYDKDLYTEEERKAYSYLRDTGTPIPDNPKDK

[8] = test system: Streptococcus; experiment: Group A Streptococcus viability loss, dose response, counter-screen for streptokinase expression inhibitor project, luminescence, BacTiterGlo (AID 1915); assay type: functional, organism-based;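 note: potency for reduction of bacterial viability or growth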
[9] = molecular target: T4, RNA-binding protein pos-1 (Caenorhabditis elegans, UniProt G5EF15); experiment: inhibitors of POS-1/mex-3 RNA binding, dose response, biochemical, fluorescence polarization (AID 1964);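 note: purified POS-1 fused to maltose binding protein made in E. coli; potency of compounds blocking POS-1 binding to fluorescent RNA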
T4 sequence (G5EF15 whole entry): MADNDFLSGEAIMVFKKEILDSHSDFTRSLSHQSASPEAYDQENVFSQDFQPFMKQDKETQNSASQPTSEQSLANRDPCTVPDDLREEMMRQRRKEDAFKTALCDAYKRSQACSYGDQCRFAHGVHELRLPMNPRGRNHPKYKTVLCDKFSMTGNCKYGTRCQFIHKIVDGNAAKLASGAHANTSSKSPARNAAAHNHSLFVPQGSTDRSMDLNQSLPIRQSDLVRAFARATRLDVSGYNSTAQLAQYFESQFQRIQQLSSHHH

[10] = molecular target: T5, Rac GTPase-activating protein 1 (Homo sapiens, UniProt Q9H0H5); experiment: MgcRacGAP GTPase-activating activity inhibitors, confirmation, biochemical, ADP Hunter fluorescence, primary and confirmatory (AID 624330); assay type: functional
T5 sequence (Q9H0H5 whole entry): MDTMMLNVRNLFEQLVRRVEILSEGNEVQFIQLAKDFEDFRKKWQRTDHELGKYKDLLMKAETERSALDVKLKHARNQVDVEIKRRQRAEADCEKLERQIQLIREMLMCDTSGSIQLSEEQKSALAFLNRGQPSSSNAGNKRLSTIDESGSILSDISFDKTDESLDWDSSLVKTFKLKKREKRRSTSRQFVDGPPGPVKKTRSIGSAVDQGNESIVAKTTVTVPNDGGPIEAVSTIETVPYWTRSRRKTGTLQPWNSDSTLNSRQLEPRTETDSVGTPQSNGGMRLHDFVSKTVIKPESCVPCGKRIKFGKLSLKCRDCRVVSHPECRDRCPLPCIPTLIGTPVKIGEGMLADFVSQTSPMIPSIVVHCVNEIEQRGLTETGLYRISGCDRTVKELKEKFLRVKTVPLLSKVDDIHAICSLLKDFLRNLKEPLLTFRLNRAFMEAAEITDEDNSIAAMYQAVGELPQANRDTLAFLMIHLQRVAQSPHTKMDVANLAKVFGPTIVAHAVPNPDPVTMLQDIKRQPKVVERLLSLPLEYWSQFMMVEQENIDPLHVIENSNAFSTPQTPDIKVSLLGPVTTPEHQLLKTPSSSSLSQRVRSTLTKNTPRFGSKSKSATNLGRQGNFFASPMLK

[11] = molecular target: T6, Zinc finger protein mex-5 (Caenorhabditis elegans, UniProt Q9XUB2); experiment: MEX-5/TCR-2 RNA interaction inhibitors, dose response, biochemical, C. elegans, fluorescence polarization (AID 1960)
T6 sequence (Q9XUB2 whole entry): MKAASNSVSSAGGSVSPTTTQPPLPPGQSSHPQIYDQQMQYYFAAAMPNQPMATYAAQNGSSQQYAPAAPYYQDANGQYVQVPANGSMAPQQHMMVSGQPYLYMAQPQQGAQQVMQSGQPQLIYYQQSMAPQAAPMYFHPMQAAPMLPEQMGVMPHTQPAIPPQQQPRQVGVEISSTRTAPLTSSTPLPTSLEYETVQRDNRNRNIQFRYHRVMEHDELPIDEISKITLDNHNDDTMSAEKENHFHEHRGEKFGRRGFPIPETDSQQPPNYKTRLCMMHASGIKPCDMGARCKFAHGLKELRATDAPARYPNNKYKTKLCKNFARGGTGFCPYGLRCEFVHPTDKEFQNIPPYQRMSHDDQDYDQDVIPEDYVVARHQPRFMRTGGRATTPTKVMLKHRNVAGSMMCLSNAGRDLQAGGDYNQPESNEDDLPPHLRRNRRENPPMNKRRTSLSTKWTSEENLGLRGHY

[12] = molecular target: Prothrombin (Homo sapiens, UniProt P00734); experiment: Thrombin 1536 HTS Dose Response Confirmation. [Related pubchem assays: 1046 (Thrombin 1536 HTS; hits were confirmed in this assay)]; assay type: functional
[13] = inhibitors of intracellular T. cruzi replication, confirmation, NIH3T3 host cells, beta-gal luminescence (AID 2044); assay type: functional, cell-based;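 note: intracellular parasites grown in NIH/3T3 mouse fibroblasts as host cells; luminescent beta-galactosidase reporter signal from transgenic T. cruzi replicating inside host cells; inhibitors lower the luminescence signal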
[14] = CRF-BP/CRF-R2 complex antagonists, dose response, cell-based, uHTS hits, 384-well (AID 651639); assay type: functional, Homo sapiens; details: read-out: IC50_Mean
[15] = molecular target: T7, Corticotropin-releasing factor receptor 2/Corticotropin-releasing factor-binding protein (Homo sapiens, UniProt P24387+Q13324); experiment: Dose Response confirmation of uHTS hits for small molecule antagonists of the CRF-binding protein and CRF-R2 receptor complex.; assay type: functional; details: read-out: IC50_Mean
T7 sequence (Q13324 whole entry): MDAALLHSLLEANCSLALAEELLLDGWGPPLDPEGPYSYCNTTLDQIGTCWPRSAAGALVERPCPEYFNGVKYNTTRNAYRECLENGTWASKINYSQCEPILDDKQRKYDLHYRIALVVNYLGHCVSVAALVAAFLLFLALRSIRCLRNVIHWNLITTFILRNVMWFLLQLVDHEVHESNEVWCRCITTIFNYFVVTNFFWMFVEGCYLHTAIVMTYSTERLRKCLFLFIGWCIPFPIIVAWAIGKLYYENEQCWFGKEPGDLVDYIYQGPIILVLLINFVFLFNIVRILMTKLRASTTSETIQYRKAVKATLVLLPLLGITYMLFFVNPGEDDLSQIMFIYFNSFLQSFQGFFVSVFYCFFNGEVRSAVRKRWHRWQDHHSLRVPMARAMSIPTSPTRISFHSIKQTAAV
T7 sequence (P24387 whole entry): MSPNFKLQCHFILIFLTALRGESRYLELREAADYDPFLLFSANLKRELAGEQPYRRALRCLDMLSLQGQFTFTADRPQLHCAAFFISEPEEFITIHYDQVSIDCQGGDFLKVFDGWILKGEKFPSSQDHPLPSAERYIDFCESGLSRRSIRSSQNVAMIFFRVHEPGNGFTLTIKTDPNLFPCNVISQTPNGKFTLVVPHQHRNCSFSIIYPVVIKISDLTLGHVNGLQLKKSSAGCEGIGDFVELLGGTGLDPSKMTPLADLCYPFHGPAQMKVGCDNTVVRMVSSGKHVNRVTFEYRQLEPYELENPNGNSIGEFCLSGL

[16] = molecular target: T7, Corticotropin-releasing factor receptor 2/Corticotropin-releasing factor-binding protein; experiment: activators of CRF receptor 2 with binding protein – uHTS hits, confirmation (AID 602473); assay type: functional; details: read-out: EC50_Mean

Chain of Genome polyprotein (P29990 2492-3391 limits assumed): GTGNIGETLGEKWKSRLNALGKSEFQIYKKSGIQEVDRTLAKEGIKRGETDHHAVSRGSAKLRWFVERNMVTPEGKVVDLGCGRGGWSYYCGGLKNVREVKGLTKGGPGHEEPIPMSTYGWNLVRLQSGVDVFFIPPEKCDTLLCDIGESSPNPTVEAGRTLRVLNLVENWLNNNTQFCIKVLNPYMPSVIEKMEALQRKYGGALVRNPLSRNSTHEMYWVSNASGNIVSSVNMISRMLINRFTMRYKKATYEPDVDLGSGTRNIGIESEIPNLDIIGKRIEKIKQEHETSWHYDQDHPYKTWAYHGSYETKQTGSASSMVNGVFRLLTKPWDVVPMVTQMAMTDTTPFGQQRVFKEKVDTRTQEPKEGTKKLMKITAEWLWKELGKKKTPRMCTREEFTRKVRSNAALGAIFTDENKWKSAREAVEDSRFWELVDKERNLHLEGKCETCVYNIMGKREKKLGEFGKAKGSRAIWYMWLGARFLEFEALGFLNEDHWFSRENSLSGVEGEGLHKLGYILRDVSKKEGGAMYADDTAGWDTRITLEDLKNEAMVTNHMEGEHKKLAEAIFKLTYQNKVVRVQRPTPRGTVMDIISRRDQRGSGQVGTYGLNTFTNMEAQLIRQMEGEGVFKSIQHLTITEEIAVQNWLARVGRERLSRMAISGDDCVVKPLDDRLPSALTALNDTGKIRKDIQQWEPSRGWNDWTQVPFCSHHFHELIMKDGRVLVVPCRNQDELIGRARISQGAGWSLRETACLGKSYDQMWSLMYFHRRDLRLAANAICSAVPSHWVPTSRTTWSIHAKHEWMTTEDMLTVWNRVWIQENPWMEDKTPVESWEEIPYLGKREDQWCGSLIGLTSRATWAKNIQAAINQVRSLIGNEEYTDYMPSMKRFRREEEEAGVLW

CC(C)c1ccc(Nc2ccc(C(=O)O)cc2[N+](=O)[O-])cc1
IC50 [1]: 70.7 µM (active)

O=[N+]([O-])c1ccc(NC(S)=NCCc2ccc(Cl)cc2)cc1
IC50 [2]: 1.82 µM (not active)
AC50 [3]: 7.38 µM (active)
Absolute IC50 (XBP1) [4]: 10 µM
AC50 [5]: 4.1 µM (active)
EC50 [6]: 2.92 µM (active)
EC50 [7]: 18.9 µM (active)
EC50 [8]: 33.2 µM (active)

CSc1sccc1/C=C(/C#N)C(=O)c1ccco1
IC50 [1]: > 100 µM (active)
EC50 [9]: > 300 µM (not active)
IC50 [10]: 22.8 µM (active)
EC50 [11]: > 300 µM (not active)

O=C(CSc1nc2nncc-2c(O)[nH]1)N1CCCCC1
IC50 [12]: > 50 µM (not active)

NC(=O)c1ccsc1NC(=O)CSc1nnc(C2CC2)n1Cc1ccccc1
IC50 [12]: > 50 µM (not active)

Oc1c(C(Nc2ccccn2)c2cccnc2)cc(Cl)c2cccnc12 (centres undefined)
AC50 [3]: 2.65 µM (active)
AC50 [5]: 4.19 µM (active)
EC50 [6]: 4.69 µM (active)
EC50 [7]: > 150 µM (not active)
EC50 [13]: 1.64 µM (active)
EC50 [8]: 9.26 µM (active)

O=[N+]([O-])c1cc(-c2ccccc2)cc([N+](=O)[O-])c1O
IC50 [1]: 58.8 µM (active)
IC50 [14]: > 20 µM (inactive)
IC50 [15]: 9.96 µM (active)
EC50 [16]: > 53 µM (inactive)
